{"source": "patent US6187343A", "about": "“Proceeding for the preparation of the prolonged action granule compound containing 4-nitro-2-phenoxymethanesulfonanilide” (priority 1997, dated 2001)", "origin": "cited, not measured here", "settings": "in vivo"}
{"smiles": "CS(=O)(=O)Nc1ccc([N+](=O)[O-])cc1Oc1ccccc1", "note": "[NIMESULIDE, 4-nitro-2-phenoxymethanesulfonanilide]", "values": [{"measurement": "adverse effects", "result": "adverse effects of the digestive type"}]}
